According to patent US20220401468A1 (priority 2021, published 2022):

Tested on: VSV-eGFP-SARS-CoV-2
Type: cell-based, VSV-SARS-CoV-2 chimeric virus

Which “half-maximal inhibitory concentration (IC50), infected (GFP+) cells” value does the source give for Heparin sodium salt here?
Its value is 0.03 µg/mL.
